For 22 compounds, T/C results are on record in PubChem BioAssay AID256 (DTP/NCI, 2004).

The test system of the assay is CD2F1 mice, L1210 leukemia ip, survival T/C. In words: NCI In Vivo Anticancer Drug Screen. Data for tumor model L1210 Leukemia (intraperitoneal) in CD2F1 (CDF1) mice. The following applies: higher = longer survival. Summed up:
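Each value reflects a quotient of treated over vehicle control outcomes in mice with a transplanted tumor.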

The mark [1] stands for this setting: endpoint: mean survival time, dose: 100.0 mg/kg/injection, schedule: Q01DX001 (ip), vehicle: saline with Tween-80.
The mark [2] stands for this setting: endpoint: mean survival time, dose: 200.0 mg/kg/injection, schedule: Q01DX001 (ip), vehicle: saline with Tween-80.
Setting [3] is: endpoint: mean survival time, dose: 400.0 mg/kg/injection, schedule: Q01DX001 (ip), vehicle: saline with Tween-80.
The mark [4] stands for this setting: endpoint: mean survival time, dose: 100.0 mg/kg/injection, schedule: Q04DX003 (ip), vehicle: saline with Tween-80.
Setting [5] is: endpoint: mean survival time, dose: 200.0 mg/kg/injection, schedule: Q04DX003 (ip), vehicle: saline with Tween-80.
Where [6] appears, read: endpoint: mean survival time, dose: 400.0 mg/kg/injection, schedule: Q04DX003 (ip), vehicle: saline with Tween-80.
[7] abbreviates: endpoint: mean survival time, dose: 100.0 mg/kg/injection, schedule: Q01DX009 (ip), vehicle: saline sonified.
The mark [8] stands for this setting: endpoint: mean survival time, dose: 200.0 mg/kg/injection, schedule: Q01DX009 (ip), vehicle: saline sonified.
The mark [9] stands for this setting: endpoint: mean survival time, dose: 100.0 mg/kg/injection, schedule: Q04DX003 (ip), vehicle: saline.
Setting [10] is: endpoint: mean survival time, dose: 200.0 mg/kg/injection, schedule: Q04DX003 (ip), vehicle: saline.
The mark [11] stands for this setting: endpoint: mean survival time, dose: 400.0 mg/kg/injection, schedule: Q04DX003 (ip), vehicle: saline.

Inconclusive results and toxic doses are left out.

As to `O=P(O)(O)OC1OC(n2cnc3c(NCc4ccc(F)cc4)ncnc32)C(O)C1O` (stereo not given), the T/C is 101 % of control (endpoint: median survival time, dose: 12.5 mg/kg/injection, schedule: Q01DX005 (ip), vehicle: saline); 101 % of control (endpoint: median survival time, dose: 25.0 mg/kg/injection, schedule: Q01DX005 (ip), vehicle: saline); 92 % of control (endpoint: median survival time, dose: 50.0 mg/kg/injection, schedule: Q01DX005 (ip), vehicle: saline); 92 % of control (endpoint: median survival time, dose: 100.0 mg/kg/injection, schedule: Q01DX005 (ip), vehicle: saline); 100 % of control (endpoint: median survival time, dose: 200.0 mg/kg/injection, schedule: Q01DX005 (ip), vehicle: saline).

As to `COC(=O)C(Br)c1ccccc1` (stereo not given), the T/C under setting [1] was 108 % of control, the T/C under setting [2] is 91 % of control and the T/C under setting [3] is 97 % of control.

With `C=CCCC(Cc1ccccc1)C1=NC(C)(C)CC(C)O1` (stereo not given), the T/C reads like this: (endpoint: mean survival time, dose: 6.25 mg/kg/injection, schedule: Q01DX001 (ip), vehicle: saline) 102 % of control; (endpoint: mean survival time, dose: 12.5 mg/kg/injection, schedule: Q01DX001 (ip), vehicle: saline) 96 % of control; (endpoint: mean survival time, dose: 25.0 mg/kg/injection, schedule: Q01DX001 (ip), vehicle: saline) 97 % of control.

For `CCCCCCCCCCCCCC(=O)N(C)C`, the T/C was 92 % of control (endpoint: mean survival time, dose: 50.0 mg/kg/injection, schedule: Q01DX009 (ip), vehicle: saline); 98 % of control (endpoint: mean survival time, dose: 100.0 mg/kg/injection, schedule: Q01DX009 (ip), vehicle: saline); 95 % of control under setting [4]; 95 % of control (endpoint: mean survival time, dose: 200.0 mg/kg/injection, schedule: Q01DX009 (ip), vehicle: saline); 103 % of control under setting [5].

Take `NC(Cn1ccc(=O)c(O)c1)C(=O)O` (stereo not given): the T/C by setting is: (endpoint: median survival time, dose: 50.0 mg/kg/injection, schedule: Q01DX009 (ip), vehicle: saline) 106 % of control; (endpoint: median survival time, dose: 100.0 mg/kg/injection, schedule: Q01DX009 (ip), vehicle: saline) 107 % of control; (endpoint: median survival time, dose: 200.0 mg/kg/injection, schedule: Q01DX009 (ip), vehicle: saline) 107 % of control; (endpoint: median survival time, dose: 400.0 mg/kg/injection, schedule: Q01DX009 (ip), vehicle: saline) 114 % of control.

Regarding `OCC1OC(n2cnc3c2NC=NCC3O)C(Cl)C1O` (stereo not given), the T/C by setting is: (endpoint: median survival time, dose: 5.0 mg/kg/injection, schedule: Q01DX005 (ip), vehicle: other) 101 % of control; (endpoint: median survival time, dose: 10.0 mg/kg/injection, schedule: Q01DX005 (ip), vehicle: other) 103 % of control; (endpoint: median survival time, dose: 20.0 mg/kg/injection, schedule: Q01DX005 (ip), vehicle: other) 96 % of control; (endpoint: median survival time, dose: 30.0 mg/kg/injection, schedule: Q01DX005 (ip), vehicle: other) 118 % of control; (endpoint: median survival time, dose: 40.0 mg/kg/injection, schedule: Q01DX005 (ip), vehicle: other) 106 % of control; (endpoint: median survival time, dose: 60.0 mg/kg/injection, schedule: Q01DX005 (ip), vehicle: other) 107 % of control. Moreover, the T/C (endpoint: median survival time, dose: 120.0 mg/kg/injection, schedule: Q01DX005 (ip), vehicle: other) was 100 % of control.

For `OC(c1ccccc1)(c1ccccc1)C(Cc1ccccc1)Cc1ccccc1`, the T/C is 102 % of control under setting [4], 100 % of control under setting [5] and 94 % of control under setting [6].

As to `CCCC(C)OC(=O)c1ccc([N+](=O)[O-])cc1` (stereo not given), the T/C is, setting by setting: (endpoint: mean survival time, dose: 100.0 mg/kg/injection, schedule: Q01DX001 (ip), vehicle: saline) 100 % of control; (endpoint: mean survival time, dose: 200.0 mg/kg/injection, schedule: Q01DX001 (ip), vehicle: saline) 110 % of control; (endpoint: mean survival time, dose: 400.0 mg/kg/injection, schedule: Q01DX001 (ip), vehicle: saline) 93 % of control.

As to `CC(=O)/C=C/c1ccc([N+](=O)[O-])cc1`, the T/C (endpoint: mean survival time, dose: 100.0 mg/kg/injection, schedule: Q04DX003 (ip), vehicle: saline sonified) is 102 % of control; the T/C (endpoint: mean survival time, dose: 200.0 mg/kg/injection, schedule: Q04DX003 (ip), vehicle: saline sonified) is 102 % of control; the T/C (endpoint: mean survival time, dose: 400.0 mg/kg/injection, schedule: Q04DX003 (ip), vehicle: saline sonified) is 95 % of control.

`CS(=O)(=O)CC1C2CCC(CC2)C1CS(C)(=O)=O` (stereo not given): the T/C reads like this: under setting [1], 93 % of control; under setting [2], 106 % of control; under setting [3], 92 % of control.

For `C=Cc1cnc([N+](=O)[O-])n1C`, the T/C reads like this: (endpoint: mean survival time, dose: 12.5 mg/kg/injection, schedule: Q01DX009 (ip), vehicle: Klucel (hydroxypropylcellulose) (HPC)) 103 % of control; (endpoint: mean survival time, dose: 25.0 mg/kg/injection, schedule: Q01DX009 (ip), vehicle: Klucel (hydroxypropylcellulose) (HPC)) 101 % of control; (endpoint: mean survival time, dose: 50.0 mg/kg/injection, schedule: Q01DX009 (ip), vehicle: Klucel (hydroxypropylcellulose) (HPC)) 101 % of control; (endpoint: mean survival time, dose: 100.0 mg/kg/injection, schedule: Q01DX009 (ip), vehicle: Klucel (hydroxypropylcellulose) (HPC)) 103 % of control; (endpoint: mean survival time, dose: 200.0 mg/kg/injection, schedule: Q01DX009 (ip), vehicle: Klucel (hydroxypropylcellulose) (HPC)) 101 % of control.

Turning to `Cc1cc(C(C(N)=O)c2ccccc2)ccc1N(CCCl)CCCl` (stereo not given), the T/C is, setting by setting: (endpoint: mean survival time, dose: 88.8 mg/kg/injection, schedule: Q01DX001 (ip), vehicle: other) 122 % of control; (endpoint: mean survival time, dose: 300.0 mg/kg/injection, schedule: Q01DX001 (ip), vehicle: other) 104 % of control.

Consider `C1CN(CCSSCCN2CCOCC2)CCO1`, for which the T/C is, setting by setting: (endpoint: mean survival time, dose: 50.0 mg/kg/injection, schedule: Q01DX009 (ip), vehicle: saline sonified) 100 % of control; under setting [7], 100 % of control; under setting [4], 104 % of control; under setting [8], 103 % of control; under setting [5], 104 % of control.

In the case of `CNC(=O)OC`, the T/C reads like this: under setting [9], 102 % of control; under setting [10], 110 % of control; under setting [11], 108 % of control.

As for `O=S(=O)(O)/[N+]([O-])=N/O`, the T/C runs as follows: under setting [7], 103 % of control; under setting [8], 95 % of control; (endpoint: mean survival time, dose: 400.0 mg/kg/injection, schedule: Q01DX009 (ip), vehicle: saline sonified) 101 % of control.

Turning to `CC(C)C1=CCC2C(=C1)CCC1C(C)(C(N)=O)CCCC21C` (stereo not given), the T/C by setting is: under setting [4], 95 % of control; under setting [5], 88 % of control; under setting [6], 90 % of control.

`COc1c(C)ccc([N+](=O)[O-])c1OC`: the T/C (endpoint: mean survival time, dose: 100.0 mg/kg/injection, schedule: Q01DX009 (ip), vehicle: saline with Tween-80) is 97 % of control; the T/C (endpoint: mean survival time, dose: 200.0 mg/kg/injection, schedule: Q01DX009 (ip), vehicle: saline with Tween-80) was 98 % of control; the T/C (endpoint: mean survival time, dose: 400.0 mg/kg/injection, schedule: Q01DX009 (ip), vehicle: saline with Tween-80) was 98 % of control.

As for `CCCCOC(=O)CCC(NC(=O)c1ccc(N(C)Cc2cnc3nc(N)nc(N)c3n2)cc1)C(=O)O` (stereo not given), the T/C was 112 % of control (endpoint: mean survival time, dose: 0.19 mg/kg/injection, schedule: Q01DX009 (ip), vehicle: water); 120 % of control (endpoint: mean survival time, dose: 0.38 mg/kg/injection, schedule: Q01DX009 (ip), vehicle: water); 159 % of control (endpoint: mean survival time, dose: 1.5 mg/kg/injection, schedule: Q01DX009 (ip), vehicle: water); 180 % of control (endpoint: mean survival time, dose: 3.0 mg/kg/injection, schedule: Q01DX009 (ip), vehicle: water); 86 % of control (endpoint: mean survival time, dose: 6.0 mg/kg/injection, schedule: Q01DX009 (ip), vehicle: water).

`CC(C)CCC(=O)/C=C\c1ccccc1`: the T/C is, setting by setting: (endpoint: mean survival time, dose: 50.0 mg/kg/injection, schedule: Q04DX002 (ip), vehicle: saline with Tween-80) 104 % of control; (endpoint: mean survival time, dose: 100.0 mg/kg/injection, schedule: Q04DX002 (ip), vehicle: saline with Tween-80) 96 % of control; (endpoint: mean survival time, dose: 200.0 mg/kg/injection, schedule: Q04DX002 (ip), vehicle: saline with Tween-80) 86 % of control; (endpoint: mean survival time, dose: 400.0 mg/kg/injection, schedule: Q04DX002 (ip), vehicle: saline with Tween-80) 86 % of control.

In the case of `Cc1c2ccccc2c(CN(C)CC(=O)O)c2ccccc12`, the T/C is 102 % of control under setting [4] and 102 % of control under setting [5].

As for `CC1(Br)C(C)(Br)C(C)(Br)C(C)(Br)C(C)(Br)C1(C)Br` (stereo not given), the T/C is, setting by setting: under setting [1], 96 % of control; under setting [2], 101 % of control; under setting [3], 101 % of control.

With `C[n+]1ccn(C(CC(=O)O)C(=O)O)c1` (stereo not given), the T/C runs as follows: under setting [9], 101 % of control; under setting [10], 103 % of control; under setting [11], 106 % of control.
